Data set [1] in a line: Background absorbance at 340 nm of Reagent A containing releasing agent. The class given is physicochemical. Conditions: for C A 340 nm (background absorbance): 3 μL negative NHP + 72 μL water + 155 μL Reagent A, 0.6 cm path; for C A 340 nm (background absorbance) / D ΔA = agent - control ΔA 340 nm: ANS 0.25 mM, anisic acids 12.5 mM in Rgt A. Here is the method:
In both runs, the background absorbance at 340 nm for each Reagent A was measured in duplicate on a 230-μL combination of 3 μL negative NHP, 72 μL of deionized water, and 155 μL Reagent A. The cell path length was 0.6 cm. […] These changes are noted as follows. Reagent B and water were added in cycle 4. The analysis was finished at the end of cycle 15. Rates were determined using the 5 absorbance readings of cycles 11 through 15.

The subject of data set [2] is MPA bound to plasma proteins in normal human plasma (NHP). The data set can be described thus: MPA enzyme immunoassay rates with releasing agents in Reagent A (NHP versus buffer), Example 2. Conditions: for I (H-G) Buff Rate Span: 0 to 10 μg/mL MPA in buffer; for J (H-F) Buff-NHP Rate Diff.: 10 μg/mL MPA, closer to zero = better releasing effect; for G Buff with 0 μg/mL MPA Rate / H Buff with 10 μg/mL MPA Rate: 50 mM MES buffer pH 7.1; for G Buff with 0 μg/mL MPA Rate / H Buff with 10 μg/mL MPA Rate / E NHP with 0 μg/mL MPA Rate / F NHP with 10 μg/mL MPA Rate: ANS 0.25 mM, anisic acids 12.5 mM in Rgt A. The procedure:
Rates were determined on a Cobas Mira Plus® instrument (Roche Diagnostics Systems, Inc., Branchburg, N.J.). The temperature was kept at 37° C. for the entire assay. Timings were carried out in cycles with each cycle being 25 seconds. In cycle 1, the first cycle, 75 μL of water and 3 μL of a sample were mixed with 155 μL of A diluent in a 0.6 cm path length cuvette. This mixture was incubated until the addition of Reagent B in cycle 7. […] In cycle 7, seventy-five μL of Reagent B followed by 20 μL of water was then added to the cuvette, mixed, and incubated until the end of cycle 25 at which time the assay was finished. During the assay, absorbance readings at 340 nm were made at the end of every cycle. A best linear fit was then made using only the 12 consecutive absorbance readings of cycles 14 through 25 versus time in minutes. The slope of this line was the rate.
In these experiments, the diluent for Reagent A (Rgt A) was made somewhat differently than that in Example 1. However, the composition was the same, except for component 7 (releasing agent, o-anisic acid) and component 10 (concentration of MPA antibody). Five diluents were prepared, four with one of each of the above agents and one control with no agent. First, a 2×solution was made in the manner described in Example 1 but which had only components 1 through 5 and 9 at twice the amounts listed. Next, for three of the diluents, each of the three anisic acid isomers was weighed to achieve a final molarity of 12.5 mM and predissolved in one quarter the final volume of water and a minimum amount of 6 N NaOH (approximately 6 drops per 0.2 grams anisic acid). For the fourth diluent, the agent, ANS, was weighed to give a 0.25 mM final concentration and added to one quarter the final volume of water. The fifth diluent, the control, had no releasing agent. To make each of these five diluents, the appropriate amounts of the 2×solution, the 1×amount of BSA, component 8, and the 1×amount of the Pluronic 25R solution, component 6, were combined. Four of these then received the appropriate agent. All were mixed well. Where necessary, pH adjustments were made as described previously and each preparation was brought to the final volume with deionized water to achieve 1× concentrations of components. Each of these A diluents was then filtered through a 0.2 micron filter. Final pH measurements on each were all between 5.5 to 5.7. For each of these five A diluents, a corresponding Reagent A was made by adding antibody to MPA for a final concentration of 6.5 μg/mL. Reagent B (Rgt B) was prepared as described in Example 1 except that component 20 was omitted and 0.1% BSA (Miles Diagnostics, Kankakee, Ill.) was substituted for BLG.
In a total of two runs the effects of each of the four agents relative to a control of no agent was examined with respect to (1) background absorbance at 340 nm, (2) the rate of a negative MPA sample, (3) the rate span between 0 and 10 μg/mL MPA, and (4) the closeness of rate matching of a 10 μg/mL MPA spike in NHP and in buffer. Both runs included the control Reagent A. The first run evaluated Reagent A with ANS while the second run evaluated Reagent A preparations containing the structural isomers of anisic acid.
MPA was spiked into NHP and buffer (Buff) to achieve a final concentration of 10 μg/mL MPA. Buffer in this example was 50 mM MES (2-[N-morpholino]ethanesulfonic acid, obtained from Sigma Chemical Company) with 0.1% (weight/volume) sodium azide, pH 7.1. As with PBS, this buffer has no protein and thus no protein binding of MPA can occur.
In both runs, the background absorbance at 340 nm for each Reagent A was measured in duplicate on a 230-μL combination of 3 μL negative NHP, 72 μL of deionized water, and 155 μL Reagent A. The cell path length was 0.6 cm. The average A340 (A=absorbance) values are found in Column C of Table 1. Duplicate rates were determined on the spiked and unspiked NHP and buffer similar to Example 1. […]

Data set [3] in a line: Discoloration of Reagent A on exposure to light. The class given is physicochemical. The note with it: agent formulated in Reagent A.
For data set [4] the following is noted: cited from earlier work.
The subject of data set [5] is MPA bound to plasma proteins in normal human plasma. Nature of the data set: MPA rates in plasma spikes in the presence of co-administered drugs and salicylate, with or without o-anisic acid, Example 4. Here is the method:
In a separate study, the ability of o-anisic acid to eliminate the effect of salicylate on rates of MPA plasma spikes was compared. Two sets of antibody reagents (Reagent A) were prepared to the basic formulation described in Example 2 above. In one reagent, no releasing agent was added; in another reagent, o-anisic acid was added at 12.5 mM. A common Reagent B was prepared as described in Example 2. Rates for four levels of MPA spikes into plasma and a plasma control were measured with each reagent set. […] Salicylate was present at 659 μg/mL. Rates were determined as described in Example 2 above with the exception of the absorbance read window, which was extended to cycle 20 where the assay was ended. Rates were determined using the 10 consecutive absorbance readings of cycles 11 through 20.

The next data set deals with MPA enzyme immunoassay. The data set can be described thus: Effect of salicylate as releasing agent on total dose-response curve of MPA enzyme immunoassay. The note with it: salicylate used as releasing agent. An excerpt: Salicylate is known to increase MPA free fraction in normal human plasma when present at concentrations that may be observed in chronic administration of aspirin (Nowak, infra). […] It is also known that 8-anilino-1-naphthalenesulfonic acid (ANS) functions as a releasing agent in immunoassays (Nerli, et al., Arch Int Physiol Biochim Biophys (1994) 102(1):5-8 and Seth, et al., Clin Chem (1975) 21(10):1406-1413. However, ANS has disadvantages because of its background absorbance at 340 nm and its susceptibility to light degradation. The background absorbance is particularly disadvantageous in enzyme immunoassays. However, ANS has been used in certain enzyme assays under conditions where its disadvantages can be tolerated.

[6] abbreviates: salicylate 659 μg/mL + NI drugs in plasma, no releasing agent in Reagent A.

Consider `O=S(=O)(O)c1cccc2cccc(Nc3ccccc3)c12` [ANS, 8-anilino-1-naphthalene sulfonic acid, reference compound], for which, in data set [1], the “C A 340 nm (background absorbance)” value was 0.779 and the “D ΔA = agent - control ΔA 340 nm” value worked out at 0.322. In data set [2], the “I (H-G) Buff Rate Span” value came to 120.2 mA/min, the “J (H-F) Buff-NHP Rate Diff.” value was 2.0 mA/min, the “G Buff with 0 μg/mL MPA Rate” value turned out to be 156.0 mA/min and the “H Buff with 10 μg/mL MPA Rate” value is on record as 276.2 mA/min. In data set [2], the “E NHP with 0 μg/mL MPA Rate” value came out at 158.2 mA/min and the “F NHP with 10 μg/mL MPA Rate” value is recorded as 274.2 mA/min. Further, the “discoloration of Reagent A when exposed to light” value in data set [3] is “visibly discolored when exposed to light”.
For `COc1c(C)c2c(c(O)c1C/C=C(\C)CCC(=O)OCCN1CCOCC1)C(=O)OC2` [MPA-M, morpholinoethyl (E)-6-(1,3-dihydro-4-hydroxy-6-methoxy-7-methyl-3-oxo-5-isobenzofuranyl)-4-methyl-4-hexenoate], the “hydrolysis in vivo to MPA” value in data set [4] is recorded as “rapidly hydrolyzed in vivo to MPA”.
As to `COc1cccc(C(=O)O)c1` [m-AA], in data set [1], the “C A 340 nm (background absorbance)” value is listed as 0.494 and the “D ΔA = agent - control ΔA 340 nm” value was 0.008. For the same molecule, in data set [2], the “I (H-G) Buff Rate Span” value stood at 90.3 mA/min, the “J (H-F) Buff-NHP Rate Diff.” value is −0.6 mA/min, the “G Buff with 0 μg/mL MPA Rate” value worked out at 189.4 mA/min and the “H Buff with 10 μg/mL MPA Rate” value came out at 279.7 mA/min. Moreover, in data set [2], the “E NHP with 0 μg/mL MPA Rate” value was determined as 188.1 mA/min and the “F NHP with 10 μg/mL MPA Rate” value was 280.3 mA/min.
`COc1ccc(C(=O)O)cc1` [p-AA]: in data set [1], the “C A 340 nm (background absorbance)” value turned out to be 0.494 and the “D ΔA = agent - control ΔA 340 nm” value is reported as 0.008. In data set [2], the “I (H-G) Buff Rate Span” value turned out to be 96.0 mA/min, the “J (H-F) Buff-NHP Rate Diff.” value is reported as −2.1 mA/min, the “G Buff with 0 μg/mL MPA Rate” value was 182.3 mA/min and the “H Buff with 10 μg/mL MPA Rate” value was determined as 278.3 mA/min. In data set [2], the “E NHP with 0 μg/mL MPA Rate” value stood at 182.7 mA/min and the “F NHP with 10 μg/mL MPA Rate” value is reported as 280.4 mA/min.
Consider `O=C(O)c1ccccc1O` [salicylic acid, 2-hydroxybenzoic acid, reference compound], for which the “absorbance above the control background at 340 nm” value in data set [1] (25 mM in Reagent A) was found to be 0.311 absorbance units. The “effect of salicylate on rates of MPA in normal human plasma” value in data set [5] (absence of releasing agents) is listed as “increased rates of MPA in normal human plasma”. Moreover, in data set [5] (setting [6]), the “Rate, MPA + NI + Salicylate, 0.5 μg/mL MPA, Antibody Reagent Only” value was 157; the “Rate, MPA + NI + Salicylate, 2.5 μg/mL MPA, Antibody Reagent Only” value was 190; the “Rate, MPA + NI + Salicylate, 5 μg/mL MPA, Antibody Reagent Only” value stood at 210; the “Rate, MPA + NI + Salicylate, 15 μg/mL MPA, Antibody Reagent Only” value was found to be 250. For the same molecule, the “decrease in the total dose-response curve in an MPA enzyme immunoassay” value in the data set on MPA enzyme immunoassay is 25-50%.

The values above are taken from US6887669B1, “Reagents for assays for ligands” (Dade Behring Marburg GmbH, priority 1996, dated 2005).
